Data on two compounds can be found in patent US6858622B2, “Cycloalkano-indole and -azaindole derivatives” (Bayer Aktiengesellschaft, priority 1994, dated 2005).

One test has as its system VLDL secretion. The experiment in a line: Determination of the VLDL secretion in vivo in the hamster (Triton WR-1339 triglyceride rise). Details: species or system golden hamsters. The following applies: Mesocricetus auratus, po, VLDL secretion measured as triglyceride rise after Triton WR-1339. The method, then:
2. Determination of the VLDL Secretion In Vivo in the Hamster
The effect of the test substances on VLDL secretion in vivo is investigated in the hamster. To do this, golden hamsters are anaesthetized with Ketaset (83 mg/kg s.c.) and Nembutal (50 mg/kg i.p.) after premedication with atropine ([…] s.c.). When the animals have become reflex-free, the jugular vein is exposed and cannulated. 0.25 ml/kg of a 20% strength solution of Triton WR-1339 in physiological saline solution is then administered. This detergent inhibits the lipoprotein lipase and thus leads to a rise in the triglyceride level as a result of a lack of catabolism of secreted VLDL particles. This triglyceride rise can be used as a measure of the VLDL secretion rate.
Blood is taken from the animals before and also one and two hours after administration of the detergent by puncture of the retroorbital venous plexus. […] The triglyceride concentration in the serum thus obtained is determined with the aid of a modified commercially available enzyme test (Merckotest® triglyceride No. 14354). […] The optical density is then determined at a wavelength of 492 nm in an automatic plate-reading apparatus (SLT Spectra). […] The triglyceride concentration contained in the samples is determined with the aid of a standard curve measured in parallel. […]

Test [1] relates to release of ApoB-100-associated lipoproteins from HepG2 cells. The experiment in a line: Inhibition of the release of ApoB-100-associated lipoproteins from liver cells (HepG2, anti-LDL immunoassay). Format: cell-based. The following applies: Homo sapiens; substance concentration at which light absorption at 450 nm (ApoB-100-associated particles in HepG2 supernatant) is inhibited by 50% vs solvent control. The method, then:
I. Inhibition of the Release of ApoB-100-Associated Lipoproteins
The test for detecting the inhibition of the release of ApoB-100-associated lipoproteins from liver cells was carried out in vitro using cultured liver cells, preferably using cells of the human line HepG2. These cells are cultured under standard conditions in medium for the culture of eukaryotic cells, preferably in RPMI 1640 with 10% foetal calf serum. HepG2 cells synthesize and secrete into the culture supernatant ApoB-100-associated lipoprotein particles which in principle are built up in a similar manner to the VLDL and LDL particles which are to be found in the plasma.
These particles can be detected using an immunoassay for human LDL. This immunoassay is carried out using antibodies which have been induced against human LDL in rabbits under standard conditions. The anti-LDL antibodies (rabbit anti-LDL Ab) were purified by affinity chromatography on an immunosorbent using human LDL. […] The immune complex located on the plastic surface is detected using monoclonal antibodies which have been induced against human LDL and purified according to standard conditions. […] After acidification of the reaction mixture with H2SO4, the specific light absorption at 450 nm is determined, which is a measure of the amount of ApoB-100-associated particles which have been secreted into the culture supernatant by the HepG2 cells. […]

The ED50 is the midpoint of the dose-response relation. Read a low ED50 as greater potency. The compound `Cc1cc(C)c2c3c(n(Cc4ccc(C(C(=O)N[C@@H](CO)c5ccccc5)C5CCCC5)cc4)c2n1)CCCC3` (single isomer, unassigned) [Ex. No. 2] came in with an ED50 with VLDL secretion of 10 to 15 mg/kg.

As a reminder, the IC50 is the concentration that inhibits the measured activity by half. The compound `Cc1cc(C)c2c3c(n(Cc4ccc(C(C(=O)N[C@@H](CO)c5ccccc5)C5CCCC5)cc4)c2n1)CCCC3` (stereo partly drawn) [Ex. No. 1, 2-S— and 2-(R)-2-[4-(2,4Dimethyl-5,6,7,8-tetrahydro-α-carbolin-9-yl)-methyl-phenyl]-2-cyclopentyl-acetic acid N—[(R)-phenylglycinolamide]] displayed an IC50 in test [1] of 28 nM.
